Assay results from patent US8987195B2 (priority 2012, dated 2015).
Read-outs that look alike come from different tables or passages of the source.

Tests used:
[1] = biological target: HCV NS3/4A protease genotype 1b (Hepatitis C virus genotype 1b, UniProt P26663); assay: HCV NS3/4A protease time-resolved fluorescence (TRF) assay, Ki against genotype 1b; assay type: biochemical; details: IC50 [gt-1b], NS3/4A protease TRF assay, genotype 1b enzyme 0.2 nM
In short: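 Enzyme was pre-incubated 30 min with inhibitor in HEPES pH 7.5 buffer (150 mM NaCl, 15% glycerol, 10 mM DTT). Reaction ran 2.5 h at room temperature with 25 nM europium TRF peptide substrate, read at ex 340/em 615 nm. Enzyme levels: 0.2 nM (1b), 0.4 nM (A156T), 0.025 nM (3a). Ki came from four-parameter IC50 via IC50=Ki(1+[S]/KM).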

HCV genotype 1b replicon = assay: HCV replicon assay, genotype 1b replicon EC50; assay type: cell-based, Hepatitis C virus; details: Hepatitis C virus, HCV replicon, genotype 1b, read-out: EC50 [gt-1b]
In short: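 Readout was replicon RNA copy number, by 32P-probe protection or TaqMan normalized to cellular cyclophilin A RNA, or luciferase activity for luciferase:Neo^r fusion lines. Cells were exposed to serially diluted compound for 24-48 hours without G418, then washed and lysed. EC50 derived from four-parameter fit relative to DMSO.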

| SMILES | IC50 ([1]; K+ salt) [pM] | EC50 (HCV genotype 1b replicon; K+ salt) [pM] | IC50 [1] [pM] | EC50 (HCV genotype 1b replicon) [pM] |
| --- | --- | --- | --- | --- |
| CC[C@@H](C)OC(=O)N[C@H]1CCCCC/C=C\[C@@H]2C[C@@]2(C(=O)NS(=O)(=O)C2(C)CC2)NC(=O)[C@@H]2C[C@]3(CCc4c(c(C5CC5)nc5ccc(OC)cc45)O3)CN2C1=O [Example 420, (2R)-butan-2-yl [(2R,6S,12Z,13aS,14aR,16aS)-5′-cyclopropyl-9′-methoxy-14a-{[(1-methylcyclopropyl)sulfonyl]carbamoyl}-5,16-dioxo-1,1′,2′,5,6,7,8,9,10,11,13a,14,14a,15,16,16a-hexadecahydrospiro[cyclopropa[e]pyrrolo[1,2-a][1,4]diazacyclopentadecine-2,3′-pyrano[2,3-c]quinolin]-6-yl]carbamate] | 11 | 1250 |  |  |
| CC[C@H](C)OC(=O)N[C@H]1CCCCC/C=C\[C@@H]2C[C@@]2(C(=O)NS(=O)(=O)C2(C)CC2)NC(=O)[C@@H]2C[C@]3(CCc4c(c(C5CC5)nc5ccc(OC)cc45)O3)CN2C1=O [Example 421, (2S)-butan-2-yl [(2R,6S,12Z,13aS,14aR,16aS)-5′-cyclopropyl-9′-methoxy-14a-{[(1-methylcyclopropyl)sulfonyl]carbamoyl}-5,16-dioxo-1,1′,2′,5,6,7,8,9,10,11,13a,14,14a,15,16,16a-hexadecahydrospiro[cyclopropa[e]pyrrolo[1,2-a][1,4]diazacyclopentadecine-2,3′-pyrano[2,3-c]quinolin]-6-yl]carbamate] |  |  | 24 | 1720 |
| COc1ccc2nc(C(F)(F)F)c3c(c2c1)CC[C@]1(C[C@H]2C(=O)N[C@]4(C(=O)NS(=O)(=O)C5(C)CC5)C[C@H]4/C=C\CCCCC[C@H](NC(=O)OC4(C)COC4)C(=O)N2C1)O3 [Example 422, 3-methyloxetan-3-yl [(2R,6S,12Z,13aS,14aR,16aS)-9′-methoxy-14a-{[(1-methylcyclopropyl)sulfonyl]carbamoyl}-5,16-dioxo-5′-(trifluoromethyl)-1,1′,2′,5,6,7,8,9,10,11,13a,14,14a,15,16,16a-hexadecahydrospiro[cyclopropa[e]pyrrolo[1,2-a][1,4]diazacyclopentadecine-2,3′-pyrano[2,3-c]quinolin]-6-yl]carbamate] | 8 | 3140 |  |  |
| Cc1ccc2nc(C(F)(F)F)c3c(c2c1)CC[C@]1(C[C@H]2C(=O)N[C@]4(C(=O)NS(=O)(=O)C5(C)CC5)C[C@H]4/C=C\CCCCC[C@H](NC(=O)OCCCN4CCCCC4)C(=O)N2C1)O3 [Example 423, 3-(piperidin-1-yl)propyl [(2R,6S,12Z,13aS,14aR,16aS)-9′-methyl-14a-{[(1-methylcyclopropyl)sulfonyl]carbamoyl}-5,16-dioxo-5′-(trifluoromethyl)-1,1′,2′,5,6,7,8,9,10,11,13a,14,14a,15,16,16a-hexadecahydrospiro[cyclopropa[e]pyrrolo[1,2-a][1,4]diazacyclopentadecine-2,3′-pyrano[2,3-c]quinolin]-6-yl]carbamate] |  |  | 48 | 19000 |
| Cc1ccc2nc(C(F)(F)F)c3c(c2c1)CC[C@]1(C[C@H]2C(=O)N[C@]4(C(=O)NS(=O)(=O)C5(C)CC5)C[C@H]4/C=C\CCCCC[C@H](NC(=O)OCCCN4CCOCC4)C(=O)N2C1)O3 [Example 424, 3-(morpholin-4-yl)propyl [(2R,6S,12Z,13aS,14aR,16aS)-9′-methyl-14a-{[(1-methylcyclopropyl)sulfonyl]carbamoyl}-5,16-dioxo-5′-(trifluoromethyl)-1,1′,2′,5,6,7,8,9,10,11,13a,14,14a,15,16,16a-hexadecahydrospiro[cyclopropa[e]pyrrolo[1,2-a][1,4]diazacyclopentadecine-2,3′-pyrano[2,3-c]quinolin]-6-yl]carbamate] |  |  | 33 | 15000 |
| Cc1nc2ccc(OCCN3CCOCC3)cc2c2c1O[C@]1(CC2)C[C@H]2C(=O)N[C@]3(C(=O)NS(=O)(=O)C4(C)CC4)C[C@H]3/C=C\CCCCC[C@H](NC(=O)OCC(C)(C)C)C(=O)N2C1 [Example 425, 2,2-dimethylpropyl {(2R,6S,12Z,13aS,14aR,16aS)-5′-methyl-14a-{[(1-methylcyclopropyl)sulfonyl]carbamoyl}-9′-[2-(morpholin-4-yl)ethoxy]-5,16-dioxo-1,1′,2′,5,6,7,8,9,10,11,13a,14,14a,15,16,16a-hexadecahydrospiro[cyclopropa[e]pyrrolo[1,2-a][1,4]diazacyclopentadecine-2,3′-pyrano[2,3-c]quinolin]-6-yl}carbamate] |  |  | 24 | 3290 |
| COc1ccc2nc(C(F)(F)F)c3c(c2c1)[C@@H](F)C[C@]1(C[C@H]2C(=O)N[C@]4(C(=O)NS(=O)(=O)C5(C)CC5)C[C@H]4/C=C\CCCCC[C@H](NC(=O)OC(C)(C)C)C(=O)N2C1)O3 [Example 426, tert-butyl [(l′S,2S,6S,12Z,13aS,14aR,16aS)-1′-fluoro-9′-methoxy-14a-{[(1-methylcyclopropyl)sulfonyl]carbamoyl}-5,16-dioxo-5′-(trifluoromethyl)-1,1′,2′,5,6,7,8,9,10,11,13a,14,14a,15,16,16a-hexadecahydrospiro[cyclopropa[e]pyrrolo[1,2-a][1,4]diazacyclopentadecine-2,3′-pyrano[2,3-c]quinolin]-6-yl]carbamate] |  |  | 603 | 21400 |
| COc1ccc2nc(C(F)(F)F)c3c(c2c1)[C@H](F)C[C@]1(C[C@H]2C(=O)N[C@]4(C(=O)NS(=O)(=O)C5(C)CC5)C[C@H]4/C=C\CCCCC[C@H](NC(=O)OC(C)(C)C)C(=O)N2C1)O3 [Example 427, tert-butyl [(l′R,2S,6S,12Z,13aS,14aR,16aS)-1′-fluoro-9′-methoxy-14a-{[(1-methylcyclopropyl)sulfonyl]carbamoyl}-5,16-dioxo-5′-(trifluoromethyl)-1,1′,2′,5,6,7,8,9,10,11,13a,14,14a,15,16,16a-hexadecahydrospiro[cyclopropa[e]pyrrolo[1,2-a][1,4]diazacyclopentadecine-2,3′-pyrano[2,3-c]quinolin]-6-yl]carbamate] |  |  | 15 | 1460 |
| COc1ccc2nc(C3CC3)c3c(c2c1)[C@H](F)C[C@]1(C[C@H]2C(=O)N[C@]4(C(=O)NS(=O)(=O)C5(C)CC5)C[C@H]4/C=C\CCCCC[C@H](NC(=O)OC(C)(C)C)C(=O)N2C1)O3 [Example 428, tert-butyl [(l′R,2S,6S,12Z,13aS,14aR,16aS)-5′-cyclopropyl-1′-fluoro-9′-methoxy-14a-{[(1-methylcyclopropyl)sulfonyl]carbamoyl}-5,16-dioxo-1,1′,2′,5,6,7,8,9,10,11,13a,14,14a,15,16,16a-hexadecahydrospiro[cyclopropa[e]pyrrolo[1,2-a][1,4]diazacyclopentadecine-2,3′-pyrano[2,3-c]quinolin]-6-yl]carbamate] |  |  | 20 | 2210 |
| COc1ccc2nc(C)c3c(c2c1)CC[C@]1(C[C@H]2C(=O)N[C@]4(C(=O)NS(=O)(=O)C5(C)CC5)C[C@H]4/C=C\CCCCC[C@H](Nc4ncccc4C)C(=O)N2C1)O3 [Example 429, (2R,6S,12Z,13aS,14aR,16aS)-9′-methoxy-5′-methyl-N-[(1-methylcyclopropyl)sulfonyl]-6-[(3-methylpyridin-2-yl)amino]-5,16-dioxo-1,1′,2′,6,7,8,9,10,11,13a,14,15,16,16a-tetradecahydrospiro[cyclopropa[e]pyrrolo[1,2-a][1,4]diazacyclopentadecine-2,3′-pyrano[2,3-c]quinoline]-14a(5H)-carboxamide] |  |  | 194 | 4280 |
| COCCOc1ccc2nc(C)c3c(c2c1)CC[C@]1(C[C@H]2C(=O)N[C@]4(C(=O)NS(=O)(=O)C5(C)CC5)C[C@H]4/C=C\CCCCC[C@H](NC(=O)OC(C)(C)C(F)(F)F)C(=O)N2C1)O3 [Example 430, 1,1,1-trifluoro-2-methylpropan-2-yl [(2R,6S,12Z,13aS,14aR,16aS)-9′-(2-methoxyethoxy)-5′-methyl-14a-{[(1-methylcyclopropyl)sulfonyl]carbamoyl}-5,16-dioxo-1,1′,2′,5,6,7,8,9,10,11,13a,14,14a,15,16,16a-hexadecahydrospiro[cyclopropa[e]pyrrolo[1,2-a][1,4]diazacyclopentadecine-2,3′-pyrano[2,3-c]quinolin]-6-yl]carbamate] |  |  | 26 | 5040 |
| COc1ccc2nc(C)c3c(c2c1)CC[C@]1(C[C@H]2C(=O)N[C@]4(C(=O)NS(=O)(=O)C5(C)CC5)C[C@H]4/C=C\CCCCC[C@H](Nc4cccc(OC)n4)C(=O)N2C1)O3 [Example 431, (2R,6S,12Z,13aS,14aR,16aS)-9′-methoxy-6-[(6-methoxypyridin-2-yl)amino]-5′-methyl-N-[(1-methylcyclopropyl)sulfonyl]-5,16-dioxo-1,1′,2′,6,7,8,9,10,11,13a,14,15,16,16a-tetradecahydrospiro[cyclopropa[e]pyrrolo[1,2-a][1,4]diazacyclopentadecine-2,3′-pyrano[2,3-c]quinoline]-14a(5H)-carboxamide] |  |  | 209 | 9120 |
| COc1ccnc(N[C@H]2CCCCC/C=C\[C@@H]3C[C@@]3(C(=O)NS(=O)(=O)C3(C)CC3)NC(=O)[C@@H]3C[C@]4(CCc5c(c(C)nc6ccc(OC)cc56)O4)CN3C2=O)c1 [Example 432, (2R,6S,12Z,13aS,14aR,16aS)-9′-methoxy-6-[(4-methoxypyridin-2-yl)amino]-5′-methyl-N-[(1-methylcyclopropyl)sulfonyl]-5,16-dioxo-1,1′,2′,6,7,8,9,10,11,13a,14,15,16,16a-tetradecahydrospiro[cyclopropa[e]pyrrolo[1,2-a][1,4]diazacyclopentadecine-2,3′-pyrano[2,3-c]quinoline]-14a(5H)-carboxamide] |  |  | 91 | 7500 |
